Source: patent US20080207700A1, “Amino Acid Salts of Rosiglitazone” (priority 2005, published 2008)

Experiment: physchem
Experimental: The following buffer solutions were used:
Thereafter, the suspensions were treated in an ultrasonic bath for 1 minute, the pH was checked and, where necessary, readjusted to the value given respectively below. Then, the solutions were 0.45 μm filtrated.
The absorption of thus produced solutions was measured at 345 nm.

solubility at 1 min (pH 11.8, aqueous buffer, thermodynamic from solid) [mg/mL]	water solubility (pH 6) [mg/mL]	Structure (SMILES)
> 50	–	CN(CCOc1ccc(CC2SC(=O)NC2=O)cc1)c1ccccn1 (centres unmarked) [Base, 5-(4-/2-(N-methyl-N-(2-pyridyl)amino)ethoxy/benzyl)-2,4-thiazolidinedione]
–	< 0.1	CN(CCOc1ccc(CC2SC(=O)NC2=O)cc1)c1ccccn1.O=C(O)/C=C\C(=O)O (centres unmarked) [Maleate, rosiglitazone maleate]
